Where two headings read alike, the source gives them in different places. Marks after values point to notes of the source that are not given here.
Experiments:
[1] = Optical properties of the CypH dyes: absorbance maximum and extinction coefficient in EtOH (Table 1); type: physicochemical; conditions: for Ex Coeff (M^−1cm^−1) @ Abs Max: at absorbance maximum
Description: (§1) Characterization: All new CypH dyes were characterized by proton NMR and mass spectrometry to confirm identity. NMR data was consistent with the structure and mass spectrometry results gave the expected mass of the dye±0.5 amu. An HPLC method was developed (see below) and used to assess dye purity. […] Retention times on the column generally correlated with lipophilicity of the dyes with water soluble dyes containing sulfate groups eluting out earlier (@10.6 min for CypH-3, 6, 9) than CypH-1 (@11.9 min) and the more lipophilic dyes later. Optical properties of the dyes, acid dissociation constants and solubilities were also determined. Synthetic intermediates were also characterized by proton NMR.

[2] = Solubility of the CypH dyes (Table 1); type: physicochemical
Description: as §1

[3] = Fluorescence properties of the CypH dyes at pH 5.0 and pH 7.5 (Table 2); type: physicochemical; conditions: for Ratio Intensity pH 5.0/7.5: fluorescence intensity pH 5.0 over pH 7.5
Excerpt: The excitation and emission maxima of CypH-1 are 760 and 777 nm, respectively. The signal intensity ratio of pH 5 over pH 7.5 was about 10. The meso-bridge ring size, lipophilicity and electro-density of CypH-1 was modified to provide better optical property. […] The best compound from this group was CypH-5 whose fluorescence ratio of pH 5.0/pH 7.5 was increased to 22. Based on this initial structure and property relationship, the second round of 10 new analogs were designed using CypH-5 as the core, focusing on modifying the electron density on the aniline ring and the indolinium ring. Various alkyl groups, such as methyl, ethyl, propyl, isopropyl and their combinations, were applied to these two positions.
The CypH analogs with other longer alkyl chains had much lower background fluorescence. […] Among them, CypH-11, which has a methyl isopropyl aniline and an isopropyl group on the indolinium ring, gave a 112-fold enhancement in fluorescence signal. CypH-11 has absorbance and emission maxima at 766 nm and 785 nm, respectively (FIG. 4) and was selected as the lead compound (vide infra).

[4] = in water; cited from earlier work
[5] = organic solvent or mixture, in EtOH, read-out: Solubility

CCN(CC)c1ccc(OC2=C(/C=C/C3=[N+](C)c4ccccc4C3(C)C)CCC/C2=C\C=C2\N(C)c3ccccc3C2(C)C)cc1.[Cl-] [CypH-14]
Ex Coeff (M^−1cm^−1) @ Abs Max [1]: 215,800 M^−1cm^−1 | Abs. Max (nm) in EtOH [1]: 767 nm | Solubility ([2]; in EtOH): >1 mM in | Ratio Intensity pH 5.0/7.5 [3]: 5.9 | FL Intensity pH 5.0 [3]: 5627 | FL Max (nm) pH 5.0 [3]: 786 nm | FL Intensity pH 7.5 [3]: 958 | FL Max (nm) pH 7.5 [3]: 784 nm

CCN(C)c1ccc(OC2=C(/C=C/C3=[N+](C)c4ccccc4C3(C)C)CC/C2=C\C=C2\N(C)c3ccccc3C2(C)C)cc1.[Cl-] [CypH-8]
Ex Coeff (M^−1cm^−1) @ Abs Max [1]: 72,700 M^−1cm^−1 | Abs. Max (nm) in EtOH [1]: 777 nm | Solubility ([2]; in EtOH): >1 mM in | Ratio Intensity pH 5.0/7.5 [3]: 41.4 | FL Intensity pH 5.0 [3]: 2816 | FL Max (nm) pH 5.0 [3]: 801 nm | FL Intensity pH 7.5 [3]: 68 | FL Max (nm) pH 7.5 [3]: 791 nm

CCCN1/C(=C/C=C2\CCCC(/C=C/C3=[N+](CCC)c4ccccc4C3(C)C)=C2Oc2ccc(N(C)C)cc2)C(C)(C)c2ccccc21.[I-] [CypH-15]
Ex Coeff (M^−1cm^−1) @ Abs Max [1]: 251,500 M^−1cm^−1 | Abs. Max (nm) in EtOH [1]: 772 nm | Solubility ([2]; in EtOH): >1 mM in | Ratio Intensity pH 5.0/7.5 [3]: 53.2 | FL Intensity pH 5.0 [3]: 4313 | FL Max (nm) pH 5.0 [3]: 791 nm | FL Intensity pH 7.5 [3]: 81 | FL Max (nm) pH 7.5 [3]: 786 nm

CCN(C)c1ccc(OC2=C(/C=C/C3=[N+](C)c4ccccc4C3(C)C)CCC/C2=C\C=C2\N(C)c3ccccc3C2(C)C)cc1 [CypH-5]
Ex Coeff (M^−1cm^−1) @ Abs Max [1]: 134,000 M^−1cm^−1 | Abs. Max (nm) in EtOH [1]: 762 nm | Solubility [2, 5]: > 1000 µM | Ratio Intensity pH 5.0/7.5 [3]: 22 | Ratio Intensity pH 5.0/7.5 ([3]; listed as 5): 22.4 | FL Intensity pH 5.0 [3]: 5089 | FL Max (nm) pH 5.0 [3]: 786 nm | FL Intensity pH 7.5 [3]: 227 | FL Max (nm) pH 7.5 [3]: 787 nm

CCN(C)c1ccc(OC2=C(/C=C/C3=[N+](CCCS(=O)(=O)[O-])c4ccccc4C3(C)C)CCC/C2=C\C=C2\N(CCCS(=O)(=O)[O-])c3ccccc3C2(C)C)cc1.[Na+] [CypH-6]
Ex Coeff (M^−1cm^−1) @ Abs Max [1]: 150,400 M^−1cm^−1 | Abs. Max (nm) in EtOH [1]: 768# nm | Solubility ([2]; in H2O): >1 mM in | Ratio Intensity pH 5.0/7.5 [3]: 10.8 | FL Intensity pH 5.0 [3]: 4359 | FL Max (nm) pH 5.0 [3]: 789 nm | FL Intensity pH 7.5 [3]: 405 | FL Max (nm) pH 7.5 [3]: 791 nm

CC(C)N(C)c1ccc(OC2=C(/C=C/C3=[N+](CCCS(=O)(=O)[O-])c4ccccc4C3(C)C)CCC/C2=C\C=C2\N(CCCS(=O)(=O)[O-])c3ccccc3C2(C)C)cc1.[Na+] [CypH-9]
Ex Coeff (M^−1cm^−1) @ Abs Max [1]: 176,300 M^−1cm^−1 | Abs. Max (nm) in EtOH [1]: 769# nm | Solubility ([2]; in H2O): >1 mM in | Ratio Intensity pH 5.0/7.5 [3]: 5.3 | FL Intensity pH 5.0 [3]: 5125 | FL Max (nm) pH 5.0 [3]: 793 nm | FL Intensity pH 7.5 [3]: 972 | FL Max (nm) pH 7.5 [3]: 789 nm

CC(C)CN1/C(=C/C=C2\CCCC(/C=C/C3=[N+](CC(C)C)c4ccccc4C3(C)C)=C2Oc2ccc(N(C)C(C)C)cc2)C(C)(C)c2ccccc21.[I-] [CypH-13]
Ex Coeff (M^−1cm^−1) @ Abs Max [1]: 218,100 M^−1cm^−1 | Abs. Max (nm) in EtOH [1]: 774 nm | Solubility ([2]; in EtOH): >1 mM in | Ratio Intensity pH 5.0/7.5 [3]: 35.0 | FL Intensity pH 5.0 [3]: 4204 | FL Max (nm) pH 5.0 [3]: 796 nm | FL Intensity pH 7.5 [3]: 120 | FL Max (nm) pH 7.5 [3]: 790 nm

CC(C)CN1/C(=C/C=C2\CCCC(/C=C/C3=[N+](CC(C)C)c4ccccc4C3(C)C)=C2Oc2ccc(N(C)C)cc2)C(C)(C)c2ccccc21.[I-] [CypH-19]
Ex Coeff (M^−1cm^−1) @ Abs Max [1]: 240,900 M^−1cm^−1 | Abs. Max (nm) in EtOH [1]: 774 nm | Solubility ([2]; in EtOH): >1 mM in | Ratio Intensity pH 5.0/7.5 [3]: 68.2 | FL Intensity pH 5.0 [3]: 3137 | FL Max (nm) pH 5.0 [3]: 794 nm | FL Intensity pH 7.5 [3]: 46 | FL Max (nm) pH 7.5 [3]: 784 nm

CCCN1/C(=C/C=C2\CCCC(/C=C/C3=[N+](CCC)c4ccccc4C3(C)C)=C2Oc2ccc(N(C)C(C)C)cc2)C(C)(C)c2ccccc21.[I-] [CypH-16]
Ex Coeff (M^−1cm^−1) @ Abs Max [1]: 248,000 M^−1cm^−1 | Abs. Max (nm) in EtOH [1]: 771 nm | Solubility ([2]; in EtOH): >1 mM in | Ratio Intensity pH 5.0/7.5 [3]: 26.6 | FL Intensity pH 5.0 [3]: 4847 | FL Max (nm) pH 5.0 [3]: 791 nm | FL Intensity pH 7.5 [3]: 182 | FL Max (nm) pH 7.5 [3]: 783 nm

CC1(C)C(/C=C/C=C/C=C/C=C2\N(CCCCS(=O)(=O)O)c3ccc4ccccc4c3C2(C)C)=[N+](CCCCS(=O)(=O)[O-])c2ccc3ccccc3c21 [indocyanine green]
quantum yield (Φ) of standard compound [4]: 1.2%

CCN1/C(=C/C=C2\CCCC(/C=C/C3=[N+](CC)c4ccccc4C3(C)C)=C2Oc2ccc(N(C)C)cc2)C(C)(C)c2ccccc21 [CypH-2]
Ex Coeff (M^−1cm^−1) @ Abs Max [1]: 139,100 M^−1cm^−1 | Abs. Max (nm) in EtOH [1]: 764 nm | Solubility [2, 5]: > 1000 µM | Ratio Intensity pH 5.0/7.5 [3]: 30.6 | FL Intensity pH 5.0 [3]: 4254 | FL Max (nm) pH 5.0 [3]: 787 nm | FL Intensity pH 7.5 [3]: 139 | FL Max (nm) pH 7.5 [3]: 786 nm

CCN1/C(=C/C=C2\CCCC(/C=C/C3=[N+](CC)c4ccccc4C3(C)C)=C2Oc2ccc(N(C)C(C)C)cc2)C(C)(C)c2ccccc21 [CypH-10]
Ex Coeff (M^−1cm^−1) @ Abs Max [1]: 175,400 M^−1cm^−1 | Abs. Max (nm) in EtOH [1]: 765 nm | Solubility [2, 5]: > 1000 µM | Ratio Intensity pH 5.0/7.5 [3]: 13.0 | FL Intensity pH 5.0 [3]: 5380 | FL Max (nm) pH 5.0 [3]: 788 nm | FL Intensity pH 7.5 [3]: 414 | FL Max (nm) pH 7.5 [3]: 781 nm

CCN(C)c1ccc(OC2=C(/C=C/C3=[N+](C(C)C)c4ccccc4C3(C)C)CCC/C2=C\C=C2\N(C(C)C)c3ccccc3C2(C)C)cc1 [CypH-17]
Ex Coeff (M^−1cm^−1) @ Abs Max [1]: 269,100 M^−1cm^−1 | Abs. Max (nm) in EtOH [1]: 770 nm | Solubility [2, 5]: > 1000 µM | Ratio Intensity pH 5.0/7.5 [3]: 57.3 | FL Intensity pH 5.0 [3]: 4468 | FL Max (nm) pH 5.0 [3]: 791 nm | FL Intensity pH 7.5 [3]: 78 | FL Max (nm) pH 7.5 [3]: 782 nm

CCCN1/C(=C/C=C2\CCCC(/C=C/C3=[N+](CCC)c4ccccc4C3(C)C)=C2Oc2ccc(N(C)CC)cc2)C(C)(C)c2ccccc21.[I-] [CypH-18]
Ex Coeff (M^−1cm^−1) @ Abs Max [1]: 257,300 M^−1cm^−1 | Abs. Max (nm) in EtOH [1]: 772 nm | Solubility ([2]; in EtOH): >1 mM in | Ratio Intensity pH 5.0/7.5 [3]: 38.2 | FL Intensity pH 5.0 [3]: 4553 | FL Max (nm) pH 5.0 [3]: 792 nm | FL Intensity pH 7.5 [3]: 117 | FL Max (nm) pH 7.5 [3]: 782 nm

CCN(C)c1ccc(OC2=C(/C=C/C3=[N+](CC)c4ccccc4C3(C)C)CCC/C2=C\C=C2\N(CC)c3ccccc3C2(C)C)cc1 [CypH-7]
Ex Coeff (M^−1cm^−1) @ Abs Max [1]: 179,500 M^−1cm^−1 | Abs. Max (nm) in EtOH [1]: 764 nm | Solubility [2, 5]: > 1000 µM | Ratio Intensity pH 5.0/7.5 [3]: 27.8 | FL Intensity pH 5.0 [3]: 5681 | FL Max (nm) pH 5.0 [3]: 788 nm | FL Intensity pH 7.5 [3]: 204 | FL Max (nm) pH 7.5 [3]: 786 nm

CC(C)N(C)c1ccc(OC2=C(/C=C/C3=[N+](C)c4ccccc4C3(C)C)CCC/C2=C\C=C2\N(C)c3ccccc3C2(C)C)cc1 [CypH-12]
Ex Coeff (M^−1cm^−1) @ Abs Max [1]: 255,600 M^−1cm^−1 | Abs. Max (nm) in EtOH [1]: 767 nm | Solubility [2, 5]: > 1000 µM | Ratio Intensity pH 5.0/7.5 [3]: 8.7 | FL Intensity pH 5.0 [3]: 4285 | FL Max (nm) pH 5.0 [3]: 787 nm | FL Intensity pH 7.5 [3]: 493 | FL Max (nm) pH 7.5 [3]: 784 nm

CCN(C)c1ccc(OC2=C(/C=C/C3=[N+](CC(C)C)c4ccccc4C3(C)C)CCC/C2=C\C=C2\N(CC(C)C)c3ccccc3C2(C)C)cc1.[I-] [CypH-20]
Ex Coeff (M^−1cm^−1) @ Abs Max [1]: 218,600 M^−1cm^−1 | Abs. Max (nm) in EtOH [1]: 774 nm | Solubility ([2]; in EtOH): >1 mM in | Ratio Intensity pH 5.0/7.5 [3]: 35.1 | FL Intensity pH 5.0 [3]: 3646 | FL Max (nm) pH 5.0 [3]: 794 nm | FL Intensity pH 7.5 [3]: 104 | FL Max (nm) pH 7.5 [3]: 789 nm

CN(C)c1ccc(OC2=C(/C=C/C3=[N+](C)c4ccccc4C3(C)C)CC/C2=C\C=C2\N(C)c3ccccc3C2(C)C)cc1.[Cl-] [CypH-4]
Ex Coeff (M^−1cm^−1) @ Abs Max [1]: 58,000 M^−1cm^−1 | Abs. Max (nm) in EtOH [1]: 775 nm | Solubility ([2]; in EtOH): >1 mM in | Ratio Intensity pH 5.0/7.5 [3]: 23.2 | FL Intensity pH 5.0 [3]: 1924 | FL Max (nm) pH 5.0 [3]: 801 nm | FL Intensity pH 7.5 [3]: 83 | FL Max (nm) pH 7.5 [3]: 790 nm

— patent US20230302159A1, “COMPOUNDS AND COMPOSITIONS FOR TUMOR DETECTION AND SURGICAL GUIDANCE” (Cornell University, priority 2020, published 2023)
